Measurements from patent US8658794B2, “8-methyl-1-phenyl-imidazol[1,5-a]pyrazine compounds as Lck inhibitors and uses thereof” (Merck Sharp & Dohme B.V., priority 2010, dated 2014).

Biological target: T1, N-terminal His6-tagged recombinant full-length human Lck (Homo sapiens, UniProt P06239)
T1 construct: N-terminal His6-tagged recombinant full-length human Lck; His6 (N); purchased Millipore
Test: Lck IMAP assay
Format: biochemical
Details: ATP 6 μM (KM,ATP), enzyme pre-incubated with compounds for 60 minutes, values given as bins
Description: Inhibition of kinase activity can be measured using the Immobilized Metal Assay for Phosphochemicals (IMAP) assay. IMAP is a homogeneous fluorescence polarization (FP) assay based on affinity capture of phosphorylated peptide substrates. IMAP uses fluorescein-labeled peptide substrates that, upon phosphorylation by a protein kinase, bind to so-called IMAP nanoparticles, which are derivatized with trivalent metal complexes. Binding causes a change in the rate of the molecular motion of the peptide, and results in an increase in the FP value observed for the fluorescein label attached to the substrate peptide (Gaudet et al. A homogeneous fluorescence polarization assay adaptable for a range of protein serine/threonine and tyrosine kinases. J. Biomol. Screen (2003) 8, 164-175).
Enzyme used was N-terminal His6-tagged recombinant full-length human Lck from Millipore. Phosphorylation substrate was a fluorescein-labeled peptide (5FAM-KVEKIGEGTYGVV—NH2) derived from p34cdc2 from Molecular Devices. Enzymes, substrate and ATP were diluted in Kinase Reaction buffer (10 mM Tris-HCl, 10 mM MgCl2, 0.01% Tween-20, 0.05% NaN3 pH 7.2, 1 mM DTT (dithiotreitol). The final volume at the kinase reaction step of the assay in the 384-well plate was 20 μl. Final amount of enzyme in the reaction was 0.1 U/ml. Enzyme was pre-incubated with compounds diluted in 1% DMSO (dimethylsulfoxide) for 60 minutes at room temperature in the dark. Subsequently, peptide substrate to a final concentration of 100 nM, and ATP to a final concentration of 6 μM were added and the mix was incubated for 120 minutes at room temperature in the dark. IMAP progressive binding buffer (75% 1× buffer A, 25% 1× buffer B with 1:600 Progressive Binding Reagent; Molecular Devices) was added, followed by an incubation step of 60 minutes at room temperature in the dark. Finally, the FP signal was read on an Envision Multilabel reader (Perkin Elmer).
All biochemical assays were run at KM,ATP of the enzyme using non-saturated conditions, meaning that during the incubation time it was assured that the signal increase was linear with time. For all biochemical assays a reference standard was used on each plate.
Ten point serial dilutions using a √10 dilution factor were used for dose response testing of compounds. Starting concentration was 10^-6M for Lck IMAP assays. Dose-response curves were run as two experiments on duplicate plates (N=1; n=2). All data was normalized to percentage effect based on maximum (Max) and minimum (Min) control values. On every 384 assay plate 16 wells were used as minimum wells (wells with ATP, 0% effect) and 16 wells were used as maximum wells (wells without ATP, 100% effect). 16 wells were used for measuring the background signal, obtained from a kinase reaction containing all constituents except the labeled peptide substrate. Percentage effect was plotted against log dilution concentration of compound to obtain sigmoid dose response curves. pIC50 values were calculated using ActivityBase.

T1 sequence (P06239 whole entry): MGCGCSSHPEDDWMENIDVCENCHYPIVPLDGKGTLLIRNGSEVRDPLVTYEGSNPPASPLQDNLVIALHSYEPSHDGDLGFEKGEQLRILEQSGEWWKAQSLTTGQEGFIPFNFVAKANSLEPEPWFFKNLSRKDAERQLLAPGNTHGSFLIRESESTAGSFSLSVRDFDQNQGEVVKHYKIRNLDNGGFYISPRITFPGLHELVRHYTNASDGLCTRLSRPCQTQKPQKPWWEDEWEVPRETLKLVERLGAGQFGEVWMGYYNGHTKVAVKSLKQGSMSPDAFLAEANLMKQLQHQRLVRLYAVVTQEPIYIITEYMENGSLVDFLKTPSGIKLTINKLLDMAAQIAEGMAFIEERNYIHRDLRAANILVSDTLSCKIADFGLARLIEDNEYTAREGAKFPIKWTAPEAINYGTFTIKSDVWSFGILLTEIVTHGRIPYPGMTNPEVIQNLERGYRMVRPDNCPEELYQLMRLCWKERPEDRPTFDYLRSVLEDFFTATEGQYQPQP

IC50 [nM]	SMILES
≤ 10	CCC[C@H](C)OC(=O)Nc1ccc(-c2nc(C3CCC(N4CCN(C)CC4)C3)n3ccnc(C)c23)cc1OC (mixture of isomers) [Example 28, (S)-Pentan-2-yl 2-methoxy-4-(8-methyl-3-(3-(4-methylpiperazin-1-yl)cyclopentyl)imidazo[1,5-a]pyrazin-1-yl)phenylcarbamate]
≤ 10	COc1cc(-c2nc(C3CCOCC3)n3ccnc(C)c23)ccc1NC(=O)c1cc2ccccc2n1C [Example 1, N-[2-Methoxy-4-[8-methyl-3-(tetrahydro-2H-pyran-4-yl)imidazo[1,5-a]pyrazine]phenyl]-1-methyl-1H-indole-2-carboxamide]
≤ 10	COc1cc(-c2nc([C@H]3CC[C@H](N4CCN(C(C)=O)CC4)CC3)n3ccnc(C)c23)ccc1NC(=O)c1cc2c(OC)cccc2n1C [Example 2, N-(4-(3-((Trans)-4-(4-acetylpiperazin-1-yl)cyclohexyl)-8-methylimidazo[1,5-a]pyrazin-1-yl)-2-methoxyphenyl)-4-methoxy-1-methyl-1H-indole-2-carboxamide]
10 to 100	CCC[C@H](C)OC(=O)Nc1ccc(-c2nc(N3CCC3)n3ccnc(C)c23)cc1OC [Example 3, (S)-pentan-2-yl 4-(3-(azetidin-1-yl)-8-methylimidazo[1,5-a]pyrazin-1-yl)-2-methoxyphenylcarbamate]
≤ 10	CCC[C@H](C)OC(=O)Nc1ccc(-c2nc([C@@H]3CCN(C(=O)CN(C)C)C3)n3ccnc(C)c23)cc1OC [Example 4, (S)-pentan-2-yl 4-(3-((R)-1-(2-(dimethylamino)acetyl)pyrrolidin-3-yl)-8-methylimidazo[1,5-a]pyrazin-1-yl)-2-methoxyphenylcarbamate]
≤ 10	COc1cc(-c2nc([C@H]3CC[C@H](OC(C)=O)CC3)n3ccnc(C)c23)ccc1NC(=O)c1cc2c(OC)cccc2n1C [Example 5, (Trans)-4-(1-(3-methoxy-4-(4-methoxy-1-methyl-1H-indole-2-carboxamido)phenyl)-8-methylimidazo[1,5-a]pyrazin-3-yl)cyclohexyl acetate]
≤ 10	COc1cc(-c2nc([C@H]3CC[C@H](O)CC3)n3ccnc(C)c23)ccc1NC(=O)c1cc2c(OC)cccc2n1C [Example 6, N-(4-(3-((trans)-4-hydroxycyclohexyl)-8-methylimidazo[1,5-a]pyrazin-1-yl)-2-methoxyphenyl)-4-methoxy-1-methyl-1H-indole-2-carboxamide]
≤ 10	COc1cc(-c2nc([C@H]3CC[C@H](N4CCN(C)CC4)CC3)n3ccnc(C)c23)ccc1NC(=O)c1cc2c(OC)cccc2n1C [Example 7, 4-Methoxy-N-(2-methoxy-4-(8-methyl-3-((trans)-4-(4-methylpiperazin-1-yl)cyclohexyl)imidazo[1,5-a]pyrazin-1-yl)phenyl)-1-methyl-1H-indole-2-carboxamide]
≤ 10	COc1cc(-c2nc([C@H]3CC[C@@H](N4CCN(C)CC4)CC3)n3ccnc(C)c23)ccc1NC(=O)c1cc2c(OC)cccc2n1C [Example 8, 4-Methoxy-N-(2-methoxy-4-(8-methyl-3-((cis)-4-(4-methylpiperazin-1-yl)cyclohexyl)imidazo[1,5-a]pyrazin-1-yl)phenyl)-1-methyl-1H-indole-2-carboxamide]
≤ 10	COc1cc(-c2nc([C@H]3CC[C@H](N4CC(F)(F)C4)CC3)n3ccnc(C)c23)ccc1NC(=O)c1cc2c(OC)cccc2n1C [Example 9, N-(4-(3-((trans)-4-(3,3-difluoroazetidin-1-yl)cyclohexyl)-8-methylimidazo[1,5-a]pyrazin-1-yl)-2-methoxyphenyl)-4-methoxy-1-methyl-1H-indole-2-carboxamide]
≤ 10	COc1cc(-c2nc([C@H]3CC[C@@H](N4CC(F)(F)C4)CC3)n3ccnc(C)c23)ccc1NC(=O)c1cc2c(OC)cccc2n1C [Example 10, N-(4-(3-((cis)-4-(3,3-difluoroazetidin-1-yl)cyclohexyl)-8-methylimidazo[1,5-a]pyrazin-1-yl)-2-methoxyphenyl)-4-methoxy-1-methyl-1H-indole-2-carboxamide]
≤ 10	CCC[C@H](C)OC(=O)Nc1ccc(-c2nc([C@H]3CC[C@H](NCCOC)CC3)n3ccnc(C)c23)cc1OC [Example 11, (S)-Pentan-2-yl 2-methoxy-4-(3-((trans)-4-(2-methoxyethylamino)cyclohexyl)-8-methyl-imidazo[1,5-a]pyrazin-1-yl)phenylcarbamate]
≤ 10	COc1cc(-c2nc([C@H]3CC[C@H](N4CCOCC4)CC3)n3ccnc(C)c23)ccc1NC(=O)c1cc2ccccc2n1C [Example 12, N-(2-methoxy-4-(8-methyl-3-((trans)-4-morpholinocyclohexyl)imidazo[1,5-a]pyrazin-1-yl)phenyl)-1-methyl-1H-indole-2-carboxamide]
≤ 10	COc1cc(-c2nc(C3(C)COC3)n3ccnc(C)c23)ccc1NC(=O)c1cc2c(OC)cccc2n1C [Example 13, 4-Methoxy-N-(2-methoxy-4-(8-methyl-3-(3-methyloxetan-3-yl)imidazo[1,5-a]pyrazin-1-yl)phenyl)-1-methyl-1H-indole-2-carboxamide]
10 to 100	COc1cc(-c2nc(CO)n3ccnc(C)c23)ccc1NC(=O)c1cc2c(OC)cccc2n1C [Example 14, N-(4-(3-(hydroxymethyl)-8-methylimidazo[1,5-a]pyrazin-1-yl)-2-methoxyphenyl)-4-methoxy-1-methyl-1H-indole-2-carboxamide]
100 to 1000	COc1cc(-c2nc(Cn3ccnc3)n3ccnc(C)c23)ccc1NC(=O)c1cc2c(OC)cccc2n1C [Example 15, N-(4-(3-((1H-imidazol-1-yl)methyl)-8-methylimidazo[1,5-a]pyrazin-1-yl)-2-methoxyphenyl)-4-methoxy-1-methyl-1H-indole-2-carboxamide]
10 to 100	COc1cc(-c2nc(C3CN(C4CCOCC4)C3)n3ccnc(C)c23)ccc1NC(=O)c1cc2c(OC)cccc2n1C [Example 16, 4-Methoxy-N-(2-methoxy-4-(8-methyl-3-(1-(tetrahydro-2H-pyran-4-yl)azetidin-3-yl)imidazo[1,5-a]pyrazin-1-yl)phenyl)-1-methyl-1H-indole-2-carboxamide]
≤ 10	COc1cc(-c2nc(C3CCNCC3)n3ccnc(C)c23)ccc1NC(=O)c1cc2c(OC)cccc2n1C [Example 17, 4-Methoxy-N-(2-methoxy-4-(8-methyl-3-(piperidin-4-yl)imidazo[1,5-a]pyrazin-1-yl)phenyl)-1-methyl-1H-indole-2-carboxamide]
≤ 10	COc1cc(-c2nc(C3CCN(CC(=O)N(C)C)CC3)n3ccnc(C)c23)ccc1NC(=O)c1cc2ccccc2n1C [Example 18, N-(4-(3-(1-(2-(dimethylamino)-2-oxoethyl)piperidin-4-yl)-8-methylimidazo[1,5-a]pyrazin-1-yl)-2-methoxyphenyl)-1-methyl-1H-indole-2-carboxamide]
≤ 10	COc1cc(-c2nc(C3CCN(C(=O)CN(C)C)CC3)n3ccnc(C)c23)ccc1NC(=O)c1cc2ccccc2n1C [Example 19, N-(4-(3-(1-(2-(dimethylamino)acetyl)piperidin-4-yl)-8-methylimidazo[1,5-a]pyrazin-1-yl)-2-methoxyphenyl)-1-methyl-1H-indole-2-carboxamide]
≤ 10	COc1cc(-c2nc(C3CCN(C(=O)CN)CC3)n3ccnc(C)c23)ccc1NC(=O)c1cc2ccccc2n1C [Example 20, N-(4-(3-(1-(2-Aminoacetyl)piperidin-4-yl)-8-methylimidazo[1,5-a]pyrazin-1-yl)-2-methoxyphenyl)-1-methyl-1H-indole-2-carboxamide]
≤ 10	COc1cc(-c2nc(C3CCN(C(N)=O)CC3)n3ccnc(C)c23)ccc1NC(=O)c1cc2c(OC)cccc2n1C [Example 21, N-(4-(3-(1-carbamoylpiperidin-4-yl)-8-methylimidazo[1,5-a]pyrazin-1-yl)-2-methoxyphenyl)-4-methoxy-1-methyl-1H-indole-2-carboxamide]
≤ 10	COC(=O)N1CCC(c2nc(-c3ccc(NC(=O)c4cc5c(OC)cccc5n4C)c(OC)c3)c3c(C)nccn23)CC1 [Example 22, Methyl 4-(1-(3-methoxy-4-(4-methoxy-1-methyl-1H-indole-2-carboxamido)phenyl)-8-methylimidazo[1,5-a]pyrazin-3-yl)piperidine-1-carboxylate]
